The target in this test is PD-1/PD-L1 protein/protein interaction (Homo sapiens (Human), UniProt Q9NZQ7). Nature of the test: PD-1/PD-L1 Homogeneous Time-Resolved Fluorescence (HTRF) Binding Assay. The following applies: recombinant human PD-L1 (19-238) His-tag, human PD-1 (25-167) Fc tag; 25° C., PBS pH 7.4. As to the method:
Example A. PD-1/PD-L1 Homogeneous Time-Resolved Fluorescence (HTRF) Binding Assay
The assays were conducted in a standard black 384-well polystyrene plate with a final volume of 20 μL. Inhibitors were first serially diluted in DMSO and then added to the plate wells before the addition of other reaction components. The final concentration of DMSO in the assay was 1%. The assays were carried out at 25° C. in the PBS buffer (pH 7.4) with 0.05% Tween-20 and 0.1% BSA. Recombinant human PD-L1 protein (19-238) with a His-tag at the C-terminus was purchased from AcroBiosystems (PD1-H5229). Recombinant human PD-1 protein (25-167) with Fc tag at the C-terminus was also purchased from AcroBiosystems (PD1-H5257). PD-L1 and PD-1 proteins were diluted in the assay buffer and […] was added to the plate well. Plates were centrifuged and proteins were preincubated with inhibitors for 40 minutes. The incubation was followed by the addition of 10 μL of HTRF detection buffer supplemented with Europium cryptate-labeled anti-human IgG (PerkinElmer-AD0212) specific for Fc and anti-His antibody conjugated to SureLight®-Allophycocyanin (APC, PerkinElmer-AD0059H). After centrifugation, the plate was incubated at 25° C. for 60 min. before reading on a PHERAstar FS plate reader (665 nm/620 nm ratio). Final concentrations in the assay were […], 10 nM PD-L1, 1 nM europium anti-human IgG and 20 nM anti-His-Allophycocyanin. IC50 determination was performed by fitting the curve of percent control activity versus the log of the inhibitor concentration using the GraphPad Prism 5.0 software.
(In general: In TR-FRET formats the signal depends on donor and acceptor labels being close together.)

Structures are written as SMILES.

Sequence of PD-1/PD-L1 protein/protein interaction (Q9NZQ7 19-238): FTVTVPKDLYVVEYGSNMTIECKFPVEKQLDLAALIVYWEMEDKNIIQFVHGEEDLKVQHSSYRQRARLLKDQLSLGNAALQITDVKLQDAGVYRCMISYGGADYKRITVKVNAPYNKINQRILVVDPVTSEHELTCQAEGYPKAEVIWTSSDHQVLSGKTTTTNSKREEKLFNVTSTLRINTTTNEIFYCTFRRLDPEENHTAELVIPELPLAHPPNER

Turning to `Cc1c(-c2ccccc2)cccc1N1CCC(NC2CCCC2)CC1` [Example 37, N-cyclopentyl-1-(2-methylbiphenyl-3-yl)piperidin-4-amine], the IC50 – broadly, the concentration that gives 50% inhibition – is no more than 100 nM.

For `N#Cc1c(-c2ccc3c(c2)OCCO3)cccc1N1CCC(N[C@@H]2CCCC[C@H]2CO)CC1` (relative stereo) [Example 12, 2-(2,3-dihydrobenzo[b][1,4]dioxin-6-yl)-6-(4-(trans-2-(hydroxymethyl)cyclohexylamino)piperidin-1-yl)benzonitrile], the IC50 is no more than 100 nM.

Consider `Cn1cc(CCNC2CCN(c3cccc(-c4ccc5c(c4)OCCO5)c3C#N)CC2)cn1` [Example 5, 2-(2,3-dihydrobenzo[b][1,4]dioxin-6-yl)-6-(4-(2-(1-methyl-1H-pyrazol-4-yl)ethylamino)piperidin-1-yl)benzonitrile], for which the IC50 was no more than 100 nM.

In the case of `N#Cc1c(-c2ccc3c(c2)OCCO3)cccc1N1CCC(N[C@H]2C[C@H](O)C2)CC1` [Example 18, 2-(2,3-dihydrobenzo[b][1,4]dioxin-6-yl)-6-(4-(trans-3-hydroxycyclobutylamino)piperidin-1-yl)benzonitrile], the IC50 was no more than 100 nM.

For `N#Cc1c(-c2ccc3c(c2)OCCO3)cccc1N1CCC(N[C@H]2C[C@H](CO)C2)CC1` [Example 23, 2-(2,3-dihvdrobenzo[b][1,4]dioxin-6-yl)-6-(4-(trans-3-(hydroxymethyl)cyclobutyl-amino)piperidin-1-yl)benzonitrile], the IC50 is no more than 100 nM.

Regarding `N#Cc1c(-c2ccc3c(c2)OCCO3)cccc1N1CCC(NC[C@@H]2CCCC[C@@H]2O)CC1` (relative stereo) [Example 19, 2-(2,3-dihydro-1,4-benzodioxin-6-yl)-6-[4-({[cis-2-hydroxycyclohexyl]methyl}amino)piperidin-1-yl]benzonitrile], the IC50 is no more than 100 nM.

`Cc1c(-c2ccccc2)cccc1N1CCC(NC2CCC(C(=O)O)CC2)CC1` (single isomer, unassigned) [41 (peak 1), 4-(1-(2-methylbiphenyl-3-yl)piperidin-4-ylamino)cyclohexane-carboxylic acid]: the IC50 is no more than 100 nM.

Regarding `Cc1c(-c2ccccc2)cccc1N1CCC(N[C@H]2CC[C@@H](O)CC2)CC1` [Example 33, cis-4-(1-(2-methylbiphenyl-3-yl)piperidin-4-ylamino)cyclohexanol], the IC50 is no more than 100 nM.

(Values after patent publication US11673883B2, “Heterocyclic compounds as immunomodulators” (Incyte Corporation, priority 2016, dated 2023).)
